Reference: US8853452B2, “Compounds, their syntheses, compositions, and methods to treat cancer” (The Administrators of the Tulane Educational Fund, priority 2009, dated 2014)
Where two headings read alike, the source gives them in different places.

What was measured:
MCF-7 cells [1] = assay: Clonogenic survival assay; assay type: cell-based, Human; conditions: Table 2, 0.1 μM-20 μM for 10 days, read-out: MCF-7 (IC50), clonogenic survival
Description: (§1) Human cancer cell lines derived from breast, MCF-7, endocrine-resistant MDA-MB-231, and chemoresistant MCF-7TN-R were cultured in 75 cm^2 culture flasks in DMEM (Invitrogen, Co.) supplemented with 10% FBS (Life Technologies, Inc., Gaithersburg, Md.), basic minimum MEM essential (50×, Invitrogen Co.) and MEM non-essential (100×, Invitrogen, Co.) amino acids, sodium pyruvate (100× Invitrogen Co.), antimicotic-antibiotic (10,000 U/mL penicillin G sodium; 10,000 μg/mL streptomycin sulphate; 25 μg/mL amphotericin B as Fungizone®), and human recombinant insulin (4 mg/mL Invitrogen Co). Culture flasks were maintained in a tissue culture incubator in a humidified atmosphere of 5% CO2 and 95% air at 37° C.
(§2) MCF-7, MDA-MB-231, or MCF-7TN-R cells were plated in 6-well plates at 1000 cells per well. Twenty-four hours later, cells were treated with varying concentrations of the compound and then monitored microscopically for colony growth. Ten days later the cells were fixed with 3% glutaraldehyde. Following fixation for 15 min, the plates were washed and stained with a 0.4% solution of crystal violet in 20% methanol for 30 min, washed with PBS, and air-dried. Colonies of 30 cells were counted as positive. Results are normalized to percent clonogenic survival from untreated control cells. Statistical analysis of IC50 values were calculated from concentration-response curves using GraphPad Prism 5.0 (Graphpad Software, San Diego, Calif.), using with the equation: Y=Bottom+(Top−bottom)/1+10 Log EC50−X.
(§3) Compounds II-1, II-2, II-3, II-4, II-5, and II-6 were compared for their inhibitory effect on breast cancer clonogenic survival. Cells were treated with varying concentration of compound, ranging from 0.1 μM-20 μM for 10 days. […] At endpoint, cell colonies were fixed, stained and recorded as percent vehicle control.

MDA-MB-231 cells [2] = assay: Clonogenic survival assay; assay type: cell-based, Human; conditions: Table 2, 0.1 μM-20 μM for 10 days, read-out: MDA-MB-231 (IC50), clonogenic survival
Description: as §1, §2, §3

MCF-7TN-R cells [3] = assay: Clonogenic survival assay; assay type: cell-based, Human; conditions: Table 2, 0.1 μM-20 μM for 10 days, read-out: MCF-7-TNR (IC50), clonogenic survival
Description: as §1, §2, §3

MCF-7 cells [4] = assay: Apoptosis ELISA assay (Cell Death Detection ELISA, Roche); assay type: cell-based, Human; conditions: double the IC50 concentration (ceramide 8.3 μM, II-3 9.4 μM)
Description: The induction of apoptosis by compounds was assayed using the nucleosome ELISA kit (Roche). The kit quantified formation of cytoplasmic histone-associated oligonucleosome DNA fragments resulting from apoptosis. […] The induction of apoptosis was determined by the amount of nucleosomes in the cytoplasm per the manufacturer's protocol. The values are the mean±SE of three independent experiments.
The ability of compound II-3 to induce apoptosis in MCF-7 cells was tested. Using a Cell Death Detection ELISA (Roche) to assess apoptosis, IC50 was measured for compound II-3 and C8-ceramide.

[5] = test system: MCF10A (normal breast epithelial) cells; assay: Proliferation assay in normal breast epithelial cells; assay type: cell-based; conditions: for effect on normal breast epithelial proliferation: MCF10A, even at 100 μM, 24 h
Description: MCF10A cells were treated with varying concentrations of drug (0.1-100 μM) for 24 h. The values are the mean±SE of four independent experiments.
The selectivity of compound II-3 and C8-ceramide to inhibit cell growth of cancer cells was determined by performing proliferation assays using MCF10A (normal breast epithelial) cells (FIG. 18).

MCF-7 cells [6] = assay: Cellular sphingolipid species by lipidomics analysis; assay type: cell-based, Human; conditions: 10 μM, 24 h
Description: (§4) (A) MCF-7, (B) MDA-MB-231, and (C) MCF-7TN-R cells were treated with ceramide (10 μM) and II-3 (10 μM) for 24 h. The values are the mean±SE of two independent experiments. S2 Endogenous lipid levels were quantified by mass spectrometry (Lipidomics Core, Medical University of South Carolina) according to published methods. Briefly, cells were collected, fortified with internal standards and extracted with ethyl acetate/isopropyl alcohol. ESI/MS/MS analyses of sphingoid bases, sphingoid base 1-phosphates, ceramides, and sphingomyelins were performed on a Thermo Finnigan TSQ 7000 triple quadrupole mass spectrometer.
(§5) The effect of compound II-3 on endogenous sphingolipid levels was compared to C8-ceramide using Lipidomics Analysis (FIG. 19-21). Dihydrosphingosine is elevated following compound II-3 treatment, with almost a 50 fold increase in MCF-7TN-R cells. Sphingosine-1-phosphate, the proliferative metabolite of ceramide, decreased in all three cell lines. C8-ceramide had the opposite effect and increased sphingosine-1-phosphate levels.

MDA-MB-231 cells [7] = assay: as above; assay type: cell-based, Human; conditions: 10 μM, 24 h
Description: as §4, §5

MCF-7TN-R cells [8] = assay: as above; assay type: cell-based, Human; conditions: 10 μM, 24 h
Description: as §4, §5

MCF-7TN-R cells [9] = assay: Proliferation assay; assay type: cell-based; conditions: Homo sapiens; FIG. 17; read-out: anti-proliferative IC50, MCF-7TN-R
Description: (§6) The ability of compound II-3 to block proliferation as an anti-survival mechanism in addition to apoptosis was determined by measuring anti-proliferative effects.
Nineteen compounds were synthesized using fifteen benzaldehydes as starting material. […] These were tested as potential anti-proliferative agents in MCF-7TN-R cells, and the structure-activity relationships were studied using several parameters. […] In compounds containing a methyl group, a significant increase of the PAC (C) in o-substituted compound was detected, which may account for the increased anti-proliferation activity. Ortho-substituted analogs with electron withdrawing groups by induction can have beneficial effects, and PAC (C) can be a useful predictor of the structural property of the molecule.

MDA-MB-231 cell line = assay: Proliferation assay; assay type: cell-based; conditions: Homo sapiens, FIG. 16, read-out: anti-proliferative IC50, MDA-MB-231
Description: as §6

MCF-7 cell line = assay: Proliferation assay; assay type: cell-based; conditions: Homo sapiens, MCF7; FIG. 15; read-out: anti-proliferative IC50, MCF-7
Description: as §6

Work on `CCCCCCCCCCCCC/C=C/[C@@H](O)[C@H](CO)NC(=O)CCCCCCC` [Compound C8-Cer, D-erythro N-octanoyl sphingosine, reference compound] yielded an IC50 (MCF-7 cells [1]) of 4.2 µM, an IC50 (MDA-MB-231 cells [2]) of 3 µM and an IC50 (MCF-7TN-R cells [3]) of 8.6 µM. For the same compound, the “fold induction in apoptosis” value (MCF-7 cells [4]; 24 hours) was 5.0 fold, the “effect on normal breast epithelial proliferation” value [5] was “little effect” and the Sphingosine-1-phosphate level (MCF-7 cells [6]) was “increased”. The Sphingosine-1-phosphate level (MDA-MB-231 cells [7]) was “increased” and the Sphingosine-1-phosphate level (MCF-7TN-R cells [8]) was “increased”.
For `CCCCCCCCCCCCCCNC(=O)[C@H](CO)N=Cc1ccccc1` [II-3, (S)-2-(benzylideneamino)-3-hydroxy-N-tetradecylpropanamide], the IC50 (MCF-7 cells [1]; Homo sapiens, MCF7, 240 h) was 4.69 µM, the IC50 (MCF-7 cells [1]) was 4.7 µM and the IC50 (MDA-MB-231 cells [2]; Homo sapiens, MDA-MB-231, 240 h) was 2.35 µM. For the same compound, the IC50 (MDA-MB-231 cells [2]) was 2.4 µM, the IC50 (MCF-7TN-R cells [3]; Homo sapiens, 240 h) was 7.67 µM and the IC50 (MCF-7TN-R cells [3]) was 7.7 µM. For the same compound, the fold induction at 9.4 µM (MCF-7 cells [4]; Homo sapiens, MCF7, 24 hours) was 5.4, the “100 μM (little effect in MCF10A) as fold of the IC50 value in chemoresistant cells” value ([5]; MCF10A versus chemoresistant cells) was “greater than 50 fold” and the “effect on normal breast epithelial proliferation” value [5] was “little effect”. The IC50 (MCF-7TN-R cells [9]) was 1.2 µM, the IC50 (MDA-MB-231 cell line) was 1.8 µM and the IC50 (MCF-7 cell line) was 4.5 µM. For the same compound, the Sphingosine-1-phosphate level (MCF-7 cells [6]) was “decreased”, the Sphingosine-1-phosphate level (MDA-MB-231 cells [7]) was “decreased” and the Dihydrosphingosine fold increase (MCF-7TN-R cells [8]) was about 50 fold. The Sphingosine-1-phosphate level (MCF-7TN-R cells [8]) was “decreased”.
